Experimental data published in patent US8569336B2, “Compounds for the treatment of inflammatory disorders” (priority 2008, dated 2013).
Where two headings read alike, the source gives them in different places.

How the values were obtained:
[1] = system: TNF-α production from human whole blood; test: Inhibition of TNF-α production from human whole blood (hWBA), LPS stimulated, ELISA; type: cell-based; details: Homo sapiens, TNF-α by ELISA, read-out: hWBA (IC50)
[2] = target: T1, purified catalytic domain of recombinant human TACE (rhTACEc) (Homo sapiens, UniProt P78536, N452Q/S266A); test: TACE kinetic assay: cleavage of internally quenched peptide substrate TNF-FRET 2 (Ki); type: biochemical; details: TNF-FRET 2 substrate
T1 construct: 6xHis (C); made in house; host or cells: baculovirus/Hi5 insect cells
T1 sequence (P78536 215-477 S266A/N452Q): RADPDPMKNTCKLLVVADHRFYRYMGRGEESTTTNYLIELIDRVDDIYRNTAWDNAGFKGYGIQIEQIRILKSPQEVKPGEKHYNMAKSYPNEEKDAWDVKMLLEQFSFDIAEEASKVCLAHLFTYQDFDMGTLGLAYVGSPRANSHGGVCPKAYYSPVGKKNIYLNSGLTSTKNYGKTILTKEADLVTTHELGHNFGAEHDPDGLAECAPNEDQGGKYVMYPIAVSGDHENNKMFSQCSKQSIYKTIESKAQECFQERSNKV

[3] = Area under the curve determinations of plasma levels in rats (rrAUC), oral 10 mg/kg; type: in vivo; details: for AUC: rat, read-out: RR AUC (rapid rat AUC, rrAUC)
[4] = 3.5 h, human whole blood diluted 1:1, LPS stimulated, 3.5 h
[5] = human whole blood diluted 1:1, LPS stimulated
[6] = plasma, blood collected 0.5-6 h post-dosing
[7] = LPS-stimulated human whole blood

| SMILES | IC50 [1, 4] [nM] | Ki ([2]; read-out: Ki) [nM] | AUC ([3]; plasma 0.5-6 h post-dosing) [µM·h] | IC50 [1, 7] [nM] | further results |
| --- | --- | --- | --- | --- | --- |
| COc1ccc2c(c1F)C(=O)N(C[C@@]1(c3cc4nc(N5CCN(C)C5=O)c(F)cc4o3)NC(=O)NC1=O)C2 [Compound 1329] |  | 0.59 |  | 234 | AUC ([3]; plasma 0.5-6 h): 0.226 µM·h |
| CCN1CCC(c2nc3cc([C@]4(CN5Cc6ccc(OC)c(F)c6C5=O)NC(=O)NC4=O)oc3cc2F)CC1 [Compound 1325] |  | 1 |  | 175 | AUC ([3]; plasma 0.5-6 h): 0.009 µM·h |
| COc1ccc2c(c1F)C(=O)N(C[C@@]1(c3cc4nc(C5(C)NC(=O)NC5=O)ccc4o3)NC(=O)NC1=O)C2 (mixture of isomers) [Compound 1901] |  | 0.49 |  | 100 | AUC ([3]; plasma 0.5-6 h): 1.07 µM·h |
| COc1ccc2c(c1F)C(=O)N(C[C@@]1(c3cc4nc(Cl)c(F)cc4o3)NC(=O)NC1=O)C2 [Compound 1328] |  |  |  | 2680 | Ki ([2]; Ki): 0.49 nM; AUC ([3]; plasma 0.5-6 h): 5.61 µM·h |
| COc1ccc2c(c1F)C(=O)N(C[C@@]1(c3cc4nc(-c5ccc(N)nc5)c(F)cc4o3)NC(=O)NC1=O)C2 [Compound 1318] |  | 0.36 |  | 87 | AUC ([3]; plasma 0.5-6 h): 0.863 µM·h |
| COc1ccc2c(c1)C(=O)N(C[C@@]1(c3cc4nc(NS(=O)(=O)C5CC5)ccc4o3)NC(=O)NC1=O)C2 [Compound 1938] |  | 0.58 |  | 518 | AUC ([3]; plasma 0.5-6 h): 0.015 µM·h |
| COc1ccc2c(c1F)C(=O)N(C[C@@]1(c3cc4cc(C5(C)NC(=O)NC5=O)cnc4o3)NC(=O)NC1=O)C2 (stereo partly drawn) [Compound 504] |  | 0.758 |  | 239 | AUC ([3]; plasma 0.5-6 h): 3.66 µM·h |
| COc1ccc2c(c1F)C(=O)N(C[C@@]1(c3cc4ncc(C(N)=O)cc4o3)NC(=O)NC1=O)C2 [Compound 1908] |  | 0.42 |  | 136 | AUC ([3]; plasma 0.5-6 h): 0.094 µM·h |
| COc1ccc2c(c1)C(=O)N(C[C@@]1(c3cc4cnc(-c5ccncc5)cc4o3)NC(=O)NC1=O)C2 [Compound 2231] | 1420 |  | 2.75 |  | Ki ([2]; Ki): 0.54 nM |
| COc1ccc2c(c1)C(=O)N(C[C@@]1(c3cc4nc(Nc5cccnc5)ccc4o3)NC(=O)NC1=O)C2 [Compound 2130] | 163 |  | 0.072 |  | Ki ([2]; Ki): 0.629 nM |
| CCN1CCN(c2ccc3oc([C@]4(CN5Cc6ccc(OC)cc6C5=O)NC(=O)NC4=O)cc3n2)CC1 [Compound 2123] | 136 | 0.807 | 0.727 |  |  |
| COc1ccc2c(c1F)C(=O)N(C[C@@]1(c3cc4cc([C@@]5(C)NC(=O)NC5=O)c(F)cc4o3)NC(=O)NC1=O)C2 (single isomer, unassigned) [Compound 1326] |  | 0.63 |  | 156 | AUC ([3]; plasma 0.5-6 h): 1.04 µM·h |
| COc1ccc2c(c1)C(=O)N(C[C@@]1(c3cc4nc(-c5cncnc5)ccc4o3)NC(=O)NC1=O)C2 [Compound 2147] | 1080 | 0.299 | 2.19 |  |  |
| COc1ccc2c(c1)C(=O)N(C[C@@]1(c3cc4nc(-c5ccncc5)ccc4o3)NC(=O)NC1=O)C2 [Compound 2110] | 351 | 0.62 | 10.5 |  |  |
| COc1ccc2c(c1)C(=O)N(C[C@@]1(c3cc4nc(Nc5onc(C)c5C)ccc4o3)NC(=O)NC1=O)C2 [Compound 2132] | 3130 |  | 0.145 |  | Ki ([2]; Ki): 0.593 nM |
| COc1ccc2c(c1)C(=O)N(C[C@@]1(c3cc4nc(N5CCC[C@@H](O)C5)ccc4o3)NC(=O)NC1=O)C2 [Compound 2170] | 189 |  | 0.414 |  | Ki ([2]; Ki): 0.415 nM |
| COc1ccc2c(c1F)C(=O)N(C[C@@]1(c3cc4nc(-n5cccn5)ccc4o3)NC(=O)NC1=O)C2 [Compound 1524] |  | 0.3 |  | 557 | AUC ([3]; plasma 0.5-6 h): 8 µM·h |
| COc1ccc2c(c1F)C(=O)N(C[C@@]1(c3cc4cc(F)cnc4o3)NC(=O)NC1=O)C2 [Compound 2277] | 499 |  | 26.2 |  | Ki ([2]; Ki): 0.505 nM |
| COc1ccc2c(c1F)C(=O)N(C[C@@]1(c3cc4nc(Nc5ccc(-c6cn[nH]c6)cn5)ccc4o3)NC(=O)NC1=O)C2 [Compound 1734] |  | 1.92 |  | 289 | AUC ([3]; plasma 0.5-6 h): 0.068 µM·h |
| COc1ccc2c(c1F)C(=O)N(C[C@@]1(c3cc4ncc(F)cc4o3)NC(=O)NC1=O)C2 [Compound 1311] |  | 1.18 |  | 297 | AUC ([3]; plasma 0.5-6 h): 14.6 µM·h |
| COc1ccc2c(c1F)C(=O)N(C[C@@]1(c3cc4nc(N5C[C@H](O)CC5=O)ccc4o3)NC(=O)NC1=O)C2 [Compound 1511] |  | 0.4 |  | 93.3 | AUC ([3]; plasma 0.5-6 h): 4.01 µM·h |
| COc1ccc2c(c1)C(=O)N(C[C@@]1(c3cc4ccc(-c5nnco5)cc4o3)NC(=O)NC1=O)C2 [Compound 2189] | 672 |  | 0.988 |  | Ki ([2]; Ki): 0.536 nM |
| COc1ccc2c(c1F)C(=O)N(C[C@@]1(c3cc4nc(N5CCN(C(C)C)CC5)ccc4o3)NC(=O)NC1=O)C2 [Compound 1706] |  | 0.5 |  | 224 | AUC ([3]; plasma 0.5-6 h): 0.273 µM·h |
| COc1ccc2c(c1)C(=O)N(C[C@@]1(c3cc4nc(-c5ccc(C#N)nc5)ccc4o3)NC(=O)NC1=O)C2 [Compound 1530] |  | 0.7 |  | 1610 | RR AUC (rapid rat AUC, rrAUC) ([3]; plasma 0.5-6 h): 0.536 µM·h |
| COc1ccc2c(c1F)C(=O)N(C[C@@]1(c3cc4nc(-c5ccncc5)ccc4o3)NC(=O)NC1=O)C2 [Compound 2122] | 426 |  | 8.18 |  | Ki ([2]; Ki): 0.58 nM |

More lines, main results first:

| IC50 [1, 4] [nM] | Ki ([2]; read-out: Ki) [nM] | AUC ([3]; plasma 0.5-6 h post-dosing) [µM·h] | IC50 [1, 7] [nM] | SMILES | further results |
| --- | --- | --- | --- | --- | --- |
| 487 | 0.67 | 9.1 |  | COc1ccc2c(c1)C(=O)N(C[C@@]1(c3cc4nc(N5CCCC5=O)ccc4o3)NC(=O)NC1=O)C2 [Compound 2171] |  |
|  | 0.276 |  |  | COc1ccc2c(c1)C(=O)N(C[C@@]1(c3cc4cc(F)ncc4o3)NC(=O)NC1=O)C2 [Compound 2304] | IC50 [1, 5]: 419 nM; AUC [3, 6]: 9.31 µM·h |
| 180 | 0.545 | 1.19 |  | COc1ccc2c(c1)C(=O)N(C[C@@]1(c3cc4nc(N5C[C@H](O)CC5=O)ccc4o3)NC(=O)NC1=O)C2 [Compound 2158] |  |
| 141 | 0.276 | 0.6 |  | COc1ccc2c(c1)C(=O)N(C[C@@]1(c3cc4nc(N5CC[C@@H](O)C5)ccc4o3)NC(=O)NC1=O)C2 [Compound 2166] |  |
| 2310 | 0.274 | 0.195 |  | COc1ccc2c(c1)C(=O)N(C[C@@]1(c3cc4ccccc4o3)NC(=O)NC1=O)C2 [Compound 2214] |  |
|  | 0.98 |  |  | COc1ccc2c(c1)C(=O)N(C[C@@]1(c3cc4ccc(C(=O)N5CCNCC5)cc4o3)NC(=O)NC1=O)C2 [Compound 2424] | IC50 [1, 5]: 702 nM; AUC [3, 6]: 0.013 µM·h |
|  | 0.566 |  |  | COc1ccc2c(c1)C(=O)N(C[C@@]1(c3cc4cnc(-c5cn[nH]c5)cc4o3)NC(=O)NC1=O)C2 [Compound 2286] | IC50 [1, 5]: 184 nM; AUC [3, 6]: 0.046 µM·h |
|  | 0.437 |  |  | COc1ccc2c(c1)C(=O)N(C[C@@]1(c3cc4c(OC)nccc4o3)NC(=O)NC1=O)C2 [Compound 2307] | IC50 [1, 5]: 604 nM; AUC [3, 6]: 41.4 µM·h |
|  | 1.26 |  |  | COc1ccc2c(c1)C(=O)N(C[C@@]1(c3cc4c(N5CCCC5=O)nccc4o3)NC(=O)NC1=O)C2 [Compound 2293] | IC50 [1, 5]: 531 nM; AUC [3, 6]: 0.219 µM·h |
| 1100 | 0.538 | 2.22 |  | COc1ccc2c(c1)C(=O)N(C[C@@]1(c3cc4cnc(-c5cccnc5)cc4o3)NC(=O)NC1=O)C2 [Compound 2232] |  |
| 260 | 0.637 | 12.1 |  | COc1ccc2c(c1)C(=O)N(C[C@@]1(c3cc4c(Cl)nccc4o3)NC(=O)NC1=O)C2 [Compound 2278] |  |
| 217 | 1.85 | 0.177 |  | COc1ccc2c(c1)C(=O)N(C[C@@]1(c3cc4cc(C5(C)NC(=O)NC5=O)c(F)cc4o3)NC(=O)NC1=O)C2 (stereo partly drawn) [Compound 2200] |  |
| 1120 | 0.563 | 3.64 |  | COc1ccc2c(c1)C(=O)N(C[C@@]1(c3cc4nc(N5CCOCC5)ccc4o3)NC(=O)NC1=O)C2 [Compound 2163] |  |
|  | 0.578 |  |  | COc1ccc2c(c1)C(=O)N(C[C@@]1(c3cc4nc(-c5cccc(C#N)c5)ccc4o3)NC(=O)NC1=O)C2 [Compound 2470] | IC50 [1, 5]: 803 nM; AUC [3, 6]: 22.1 µM·h |
|  | 0.5 |  |  | COc1ccc2c(c1)C(=O)N(C[C@@]1(c3cc4c(C)nccc4o3)NC(=O)NC1=O)C2 [Compound 2284] | IC50 [1, 5]: 198 nM; AUC [3, 6]: 2.8 µM·h |
|  | 0.16 |  |  | CNS(=O)(=O)c1ccc2oc([C@]3(CN4Cc5ccc(OC)cc5C4=O)NC(=O)NC3=O)cc2c1 [Compound 2481] | IC50 [1, 5]: 310 nM; AUC [3, 6]: 0.89 µM·h |
| 722 | 0.243 | 0.165 |  | COc1ccc2c(c1)C(=O)N(C[C@@]1(c3cc4cc(-c5csc(N)n5)ccc4o3)NC(=O)NC1=O)C2 [Compound 2220] |  |
| 573 | 0.807 | 0.467 |  | COc1ccc2c(c1)C(=O)N(C[C@@]1(c3cc4cc(N)ccc4o3)NC(=O)NC1=O)C2 [Compound 2226] |  |
|  | 0.32 |  |  | COc1ccc2c(c1)C(=O)N(C[C@@]1(c3cc4nc(C#N)ccc4o3)NC(=O)NC1=O)C2 [Compound 2473] | IC50 [1, 5]: 564 nM; AUC [3, 6]: 5.69 µM·h |
|  | 0.37 |  |  | COc1ccc2c(c1F)C(=O)N(C[C@@]1(c3cc4cnccc4o3)NC(=O)NC1=O)C2 [Compound 2310] | IC50 [1, 5]: 197 nM; AUC [3, 6]: 2.31 µM·h |
| 1180 | 0.417 | 0.623 |  | COc1ccc2c(c1)C(=O)N(C[C@@]1(c3cc4c(o3)CN(C)CC4)NC(=O)NC1=O)C2 [Compound 2264] |  |
| 2370 | 0.839 | 0.129 |  | COc1ccc2c(c1)C(=O)N(C[C@@]1(c3cc4cc(NC(=O)N(C)C)ccc4o3)NC(=O)NC1=O)C2 [Compound 2228] |  |
